Assays:
3T3-L1 adipocytes = experiment: Intracellular Ca2+ in cultured adipocytes (fura-2); format: cell-based, mouse; conditions: H2O2 100 nmol/L, 4 hours; p<0.001
Protocol: 3T3-L1 preadipocytes were incubated at a density of 8000 cells/cm^2 (10 cm^2 dish) and grown in Dulbecco's modified Eagle's medium (DMEM) containing 10% FBS and antibiotics (adipocyte medium) at 37° C. in 5% CO2 in air. Confluent preadipocytes were induced to differentiate with a standard differentiation medium consisting of DMEM-F10 (1:1, vol/vol) medium supplemented with 1% FBS, 1 μM dexamethasone, IBMX (0.5 mM) and antibiotics (1% Penicillin-Streptomycin). Preadipocytes were maintained in this differentiation medium for 3 days and subsequently cultured in adipocyte medium. Cultures were re-fed every 2-3 days to allow 90% of cells to reach full differentiation before conducting chemical treatment. Chemicals were freshly diluted in adipocyte medium before treatment. Cells were washed with fresh adipocyte medium, re-fed with medium containing the different treatments, and incubated at 37° C. in 5% CO2 in air before analysis. Cell viability was measured via trypan blue exclusion. [Ca^2+]i in adipocytes was measured using a fura-2 dual-wavelength fluorescence imaging system. Cells were plated in 35-mm dishes […]). […] Cells were loaded with fura-2 acetoxymethyl ester (fura-2 AM) (10 μmol/L) in the same buffer for 2 h at 37° C. in a dark incubator with 5% CO2. To remove extracellular dye, cells were rinsed with HBSS three times and then post-incubated at room temperature for an additional 1 h for complete hydrolysis of cytoplasmic fura-2 AM. The dishes with dye-loaded cells were mounted on the stage of Nikon TMS-F fluorescence inverted microscope with a Cohu model 4915 charge-coupled device (CCD) camera. Fluorescent images were captured alternatively at excitation wavelengths of 340 and 380 nm with an emission wavelength of 520 nm. After establishment of a stable baseline, the responses to 1α, 25-(OH)2-D3 was determined. [Ca^2+]i was calculated using a ratio equation as described previously. Each analysis evaluated responses of 5 representative whole cells. Images were analyzed with […]2 version 4.62 imaging software (Intracellular Imaging, Cincinnati, Ohio). […]

TNFα = TNFα expression in RAW 264 macrophages; format: cell-based
Protocol: RAW 264 macrophages and 3T3-L1 preadipocytes (American Type Culture Collection) were incubated at a density of 8000 cells/cm2 (10 cm2 dish) and grown in Dulbecco's modified Eagle's medium (DMEM) containing 10% FBS and antibiotics (adipocyte medium) at 37° C. in 5% CO2 in air. Confluent 3T3-L1 preadipocytes were induced to differentiate with a standard differentiation medium consisting of DMEM-F10 (1:1, vol/vol) medium supplemented with 1% FBS, 1 μM dexamethasone, IBMX (0.5 mM) and antibiotics (1% Penicillin-Streptomycin). Preadipocytes were maintained in this differentiation medium for 3 days and subsequently cultured in adipocyte medium. Cultures were re-fed every 2-3 days to allow 90% cells to reach fully differentiation for 3T3-L1 adipocytes or grow to a confluence for RAW 264 before conducting chemical treatment.
Cells were washed with fresh adipocyte medium, re-fed with medium containing the indicated treatments, and incubated at 37° C. in 5% CO2 for 48 hours before analysis. Cell viability was measured via trypan blue exclusion.
Human adipocytes (Zen-Bio, Inc.), 3T3-L1 adipocytes, RAW264 macrophages were obtained and co-cultured by using transwell inserts with 0.4 μm porous membranes (Corning) to separate adipocytes and macrophages. All data are expressed as mean±SEM. Data were evaluated for statistical significance by analysis of one-way or two-way variance (ANOVA; means with different letter differ, p<0.05).
Adipocyte and muscle 18s, CD14, TNFα, MIP, M-CSF, IL-6 and MCP-1 were quantitatively measured using a Smart Cycler Real Time PCR System (Cepheid, Sunnyvale, Calif.) with a TaqMan 1000 Core Reagent Kit (Applied Biosystems, Branchburg, N.J.). […] Reactions of quantitative RT-PCR for standards and unknown samples were also performed according to the instructions of Smart Cycler System (Cepheid, Sunnyvale, Calif.) and TaqMan Real Time PCR Core Kit (Applied Biosystems, Branchburg, N.J.). The mRNA quantitation for each sample was further normalized using the corresponding 18s quantitation.

C2C12 myotubes = experiment: Fatty acid oxidation (palmitate oxidation) in muscle cells; format: cell-based, murine; conditions: calcitriol 10 nM, 48 hours; p<0.05
Protocol: FIG. 53: Fatty acid oxidation was determined via palmitate oxidation. […] Data are corrected for DNA content. Values are presented as mean±SEM, n=6. Means with different letter differ with p<0.05.
The adipose tissue-skeletal muscle endocrine axis may play a potential role in regulating metabolic energy partitioning. […] While both calcium and dairy accelerate adipose tissue loss, dairy exerts a substantially greater effect and exerts a protective effect on lean tissue during hypocaloric diets. We have shown that dietary calcium modulation of adiposity is mediated, in part, by suppression of calcitriol, while the additional effect of dairy is mediated by additional bioactive components; these include the high concentration of leucine, a key factor in the regulation of muscle protein turnover. […] However, the effect of leucine and calcium, in regulating this process is unclear. Accordingly, present study was designed to investigate the effect of leucine, calcitriol and calcium on energy metabolism in murine adipocytes and muscle cells. Leucine induced a 41% increase in fatty acid oxidation in C2C12 muscle cells (p<0.001) and decreased fatty acid synthase gene expression by 66% (p<0.001) in 3T3-L1 adipocytes. Calcitriol decreased muscle cell fatty acid oxidation by 17% (p<0.05) and increased adipocyte FAS gene expression by 3-fold (p<0.05).

fatty acid synthase = experiment: Fatty acid synthase gene expression in adipocytes; format: cell-based, murine; conditions: p<0.05
Source text: The adipose tissue-skeletal muscle endocrine axis may play a potential role in regulating metabolic energy partitioning. […] However, the effect of leucine and calcium, in regulating this process is unclear. Accordingly, present study was designed to investigate the effect of leucine, calcitriol and calcium on energy metabolism in murine adipocytes and muscle cells.

Compound	increase in [Ca2+]i (3T3-L1 adipocytes) [fold]	stimulation of TNFα expression (TNFα; RAW 264 macrophages cultured alone) [%]	effect on TNFα expression in macrophages (TNFα; co-culture with differentiated 3T3-L1 adipocytes)	decrease in muscle cell fatty acid oxidation (C2C12 myotubes) [%]	increase in adipocyte FAS gene expression (fatty acid synthase) [fold]
OO [H2O2, hydrogen peroxide]	5				
C=C1/C(=C\C=C2/CCC[C@]3(C)[C@@H]([C@H](C)CCCC(C)(C)O)CC[C@@H]23)C[C@@H](O)C[C@@H]1O [calcitriol, 1,25-(OH)2-D3]		91	further enhanced	17	3
